In a melting point compilation (Tetko et al.; mined from patent text by program, amines drawn as free bases though some values may be those of a salt) one finds melting point data, which are given here for 34 compounds.

Structures are written as SMILES. A value given as a limit tells only on which side of the number the result lay.

In turn, `COc1ccc(F)cc1C(C)(C)CC(O)(Cc1nc2cc(-c3ccccc3)ccc2o1)C(F)(F)F` (centres undefined) showed a melting point of 103 to 104 °C. As for `c1cc(-c2cncnc2)cc(-n2cnc3cc(-c4ccoc4)ccc32)c1`, the melting point was 216 to 218 °C. Then `O=C(CCCN1CCN(c2noc3cc(OC(=O)C45CC6CC(CC(C6)C4)C5)ccc23)CC1)c1ccc(F)cc1`, with 157 to 158 °C; and `CCCCc1oc2ccc([N+](=O)[O-])cc2c1C(=O)c1ccc(OCCCO)cc1`, with 76 to 80 °C; and `CC1(C)CCC(Cc2ccc(Cl)cc2)C1(O)CO` (centres undefined), with 103 to 104 °C.

For the compound `Cc1cc(C)c(-c2nc3ccc(C(=O)c4ccccc4)cc3[nH]2)[nH]1`, the melting point was in the range of 225 to 229 °C. Turning to `CC(=O)Nc1ccc(-c2cccc(C3=NCC(C)(C)c4ccc5c(c43)CC(C)(C)O5)c2)cc1`, the melting point was in the range of 246 to 249 °C. Then `CCOC(=O)c1cc2c3cc4ccccc4cc3ccc2n1C`, with 141 to 144 °C; and `COCc1nc2c(OCc3ccccc3)cccc2n1C`, with 120 to 122 °C; and `CCOCN1C(C)=C(C(C)=O)C(c2cccc([N+](=O)[O-])c2)C(C(=O)OCC)=C1C` (centres undefined), with 110 to 111 °C. With `CC(C(=O)O)c1ccc(N)c(C(F)(F)F)c1` (centres undefined) the figure was 73 to 75 °C; with `CNCC(=O)N1N=C(c2ccc(N)cc2)c2cc3c(cc2CC1C)OCO3` (centres undefined), 198 to 200 °C.

Take `OC1CCC2(c3c[nH]cn3)Cc3ccccc3C12` (centres undefined): the melting point lay within 183 to 186 °C.

As to `O=C(c1ccc(F)cc1)C1CCN(CCn2c(=O)[nH]c3ccccc32)CC1`, the melting point was 164 °C. `CNC(=O)C[C@@H]1N=C(c2ccc(Cl)cc2)c2c(sc(C)c2C)-n2c(C)nnc21` came in with a melting point of 143 to 145 °C.

Take `CCN1C(c2ccccc2C(=O)c2ccccc2)=N[C@@H]2CCCC[C@H]21` (relative stereo): the melting point is 80 to 83 °C. In the case of `CCOC(=O)c1nc(NCC(c2ccccc2)c2ccccc2)c2nc[nH]c2n1`, the melting point is above 200 °C. In the case of `Cc1c(NC(=O)c2ccc(-c3ccc(F)cc3)cc2)ccc2cc(CN3CCCCC3)cnc12`, the melting point fell in the range of 188 to 190 °C. Compound `Cc1ccc2nc(N3CC[C@@H](O)C3)ccc2c1NC(=O)CC1CCCCC1` gave a melting point of 248 to 249 °C. `COC(=O)CN1Cc2c([nH]c3ccccc23)C1=O` displayed a melting point of 215 to 217 °C. Then `O=c1[nH]c2ccc(S(=O)CCN3CCC(O)(Cc4ccc(F)cc4)CC3)cc2o1` (centres undefined), with 153 to 155 °C; and `COC(=O)C(=Cc1ccc2c(c1)CCO2)N=[N+]=[N-]`, with 77 to 80 °C.

With `COc1cccc(OC)c1-c1nc2cnncc2[nH]1`, the melting point is 207 °C. On to `O=C(NCCO)c1cccc(-c2ccc3c(c2)N(Cc2cc(Cl)cc(Cl)c2)CC3)c1`, for which the melting point lay within 121 to 128 °C. Turning to `COC(=O)C(=O)c1nsc(NC(=O)Oc2ccccc2)n1`, the melting point lay within 74 to 79 °C. `Cc1nnc(NC(=O)C2c3ccccc3Oc3ccccc32)o1`: the melting point lay within 261 to 263 °C.

In the case of `Cc1ccc([N+](=O)[O-])cc1CCl`, the melting point lay within 56 to 62 °C. For `CCC(CO)(CO)Nc1ncc2cc(Oc3ccc(F)cc3F)ccc2n1`, the melting point was in the range of 110 to 113 °C.

`c1ccc(CSc2nc[nH]n2)cc1` gave a melting point of 79 to 80 °C. Then `CN(C)CCNCCc1ccc(Nc2ncc3c(n2)-c2ccccc2C(c2cccc(Br)c2)C3)cc1` (centres undefined), with 75 to 77 °C; and `COc1ccc(-c2nc(CNC(=O)NC(C)C)sc2-c2ccc(OC)cc2)cc1`, with 146 to 149 °C; and `O=C(Nc1ccc(C(F)(F)F)cc1)O[C@H]1COC(c2ccccc2)=N[C@@H]1c1ccccc1` (racemic), with 140 °C.

Turning to `Cn1ccc(Nc2n[nH]c3ccc(-c4ncccc4Cl)cc23)n1`, the melting point fell in the range of 190 to 191 °C.

`CC(C)Cn1cnc2c(Br)c(NC3=NCCN3)ccc21` yielded a melting point of 226 to 227 °C.
